The source made the active and inactive calls. The rule behind the calls is not given here.
Tests used:
[1] = target: Activated CDC42 kinase 1 (Homo sapiens) (UniProt Q07912); assay: TNK2 DiscoveRx kinase panel; settings: Compound concentration 1.0 uM
[2] = target: Sigma intracellular receptor 2 (Homo sapiens, UniProt Q5BJF2); settings: Compound concentration 10.0 uM
[3] = target: Rhodopsin kinase GRK7 (Homo sapiens) (UniProt Q8WTQ7); assay: GRK7 DiscoveRx kinase panel; settings: Compound concentration 1.0 uM
[4] = target: SNF-related serine/threonine-protein kinase (Homo sapiens) (UniProt Q9NRH2); assay: SNRK DiscoveRx kinase panel; settings: Compound concentration 1.0 uM
[5] = target: Cyclin-dependent kinase 9 (Homo sapiens) (UniProt P50750); assay: CDK9 DiscoveRx kinase panel; settings: Compound concentration 1.0 uM
[6] = target: Tyrosine-protein kinase ITK/TSK (Homo sapiens) (UniProt Q08881); assay: ITK DiscoveRx kinase panel; settings: Compound concentration 1.0 uM
[7] = target: Mitogen-activated protein kinase 4 (Homo sapiens) (UniProt P31152); assay: ERK4 DiscoveRx kinase panel; settings: Compound concentration 1.0 uM
[8] = target: T1, Sodium-dependent dopamine transporter (Homo sapiens, UniProt Q01959); settings: Compound concentration 10.0 uM
[9] = target: Serine/threonine-protein kinase 26 (Homo sapiens) (UniProt Q9P289); assay: MST4 DiscoveRx kinase panel; settings: Compound concentration 1.0 uM
[10] = target: Acetylcholinesterase (Homo sapiens) (UniProt P22303); settings: Compound concentration 10.0 uM
[11] = target: Serine/threonine-protein kinase 17B (Homo sapiens) (UniProt O94768); assay: DRAK2 DiscoveRx kinase panel; settings: Compound concentration 1.0 uM
[12] = target: Cyclin-dependent kinase 16 (Homo sapiens) (UniProt Q00536); assay: PCTK1 DiscoveRx kinase panel; settings: Compound concentration 1.0 uM
[13] = target: Serine/threonine-protein kinase WNK2 (Homo sapiens) (UniProt Q9Y3S1); assay: WNK2 DiscoveRx kinase panel; settings: Compound concentration 1.0 uM
[14] = target: Death-associated protein kinase 1 (Homo sapiens) (UniProt P53355); assay: DAPK1 DiscoveRx kinase panel; settings: Compound concentration 1.0 uM
[15] = target: Melanocyte-stimulating hormone receptor (Homo sapiens) (UniProt Q01726); assay: Melanocortin MC1 Eurofins-Panlabs radioligand binding assay; settings: Compound concentration 10.0 uM
[16] = target: Cyclin-dependent kinase-like 2 (Homo sapiens) (UniProt Q92772); assay: CDKL2 DiscoveRx kinase panel; settings: Compound concentration 1.0 uM
[17] = target: Serine/threonine-protein kinase WNK4 (Homo sapiens) (UniProt Q96J92); assay: WNK4 DiscoveRx kinase panel; settings: Compound concentration 1.0 uM
[18] = target: Gastrin/cholecystokinin type B receptor (Homo sapiens) (UniProt P32239); assay: Cholecystokinin CCK2 (CCKB) Eurofins-Panlabs radioligand binding assay; settings: Compound concentration 10.0 uM
[19] = target: Vascular endothelial growth factor receptor 3 (Homo sapiens) (UniProt P35916); assay: FLT4 DiscoveRx kinase panel; settings: Compound concentration 1.0 uM
[20] = target: Serine/threonine-protein kinase Nek1 (Homo sapiens) (UniProt Q96PY6); assay: NEK1 DiscoveRx kinase panel; settings: Compound concentration 1.0 uM
[21] = target: Alpha-1D adrenergic receptor (Homo sapiens, UniProt P25100); assay: GPCRScan assay: inhibition of Alpha1D; parameters: radioligand conc. used [nm] 0.3 – 1.0, parental cells stable
[22] = target: Ankyrin repeat and protein kinase domain-containing protein 1 (Homo sapiens) (UniProt Q8NFD2); assay: ANKK1 DiscoveRx kinase panel; settings: Compound concentration 1.0 uM
[23] = target: T1, Sodium-dependent dopamine transporter; assay: GPCRScan assay: inhibition of DAT; parameters: radioligand conc. used [nm] 3.6 – 16.0, parental cells stable HEK
[24] = target: Dual specificity mitogen-activated protein kinase kinase 5 (Homo sapiens) (UniProt Q13163); assay: MEK5 DiscoveRx kinase panel; settings: Compound concentration 1.0 uM
[25] = target: Phosphatidylinositol 4,5-bisphosphate 3-kinase catalytic subunit beta isoform (Homo sapiens) (UniProt P42338); assay: PIK3CB DiscoveRx kinase panel; settings: Compound concentration 1.0 uM
[26] = target: Mitogen-activated protein kinase kinase kinase kinase 1 (Homo sapiens) (UniProt Q92918); assay: HPK1 DiscoveRx kinase panel; settings: Compound concentration 1.0 uM
[27] = target: Mitogen-activated protein kinase kinase kinase 4 (Homo sapiens) (UniProt Q9Y6R4); assay: MAP3K4 DiscoveRx kinase panel; settings: Compound concentration 1.0 uM
[28] = target: Ribosomal protein S6 kinase beta-1 (Homo sapiens) (UniProt P23443); assay: S6K1 DiscoveRx kinase panel; settings: Compound concentration 1.0 uM
[29] = target: Mitogen-activated protein kinase 10 (Homo sapiens) (UniProt P53779); assay: JNK3 DiscoveRx kinase panel; settings: Compound concentration 1.0 uM
[30] = target: Homeodomain-interacting protein kinase 2 (Homo sapiens) (UniProt Q9H2X6); assay: HIPK2 DiscoveRx kinase panel; settings: Compound concentration 1.0 uM
[31] = target: T2, Mitotic checkpoint serine/threonine-protein kinase BUB1 (Homo sapiens, UniProt O43683); assay: BUB1 biochemical assay (high ATP)
[32] = target: Cyclin-dependent kinase 15 (Homo sapiens) (UniProt Q96Q40); assay: PFTAIRE2 DiscoveRx kinase panel; settings: Compound concentration 1.0 uM
[33] = target: AP2-associated protein kinase 1 (Homo sapiens) (UniProt Q2M2I8); assay: AAK1 DiscoveRx kinase panel; settings: Compound concentration 1.0 uM
[34] = target: LIM domain kinase 1 (Homo sapiens) (UniProt P53667); assay: LIMK1 DiscoveRx kinase panel; settings: Compound concentration 1.0 uM
[35] = target: Cytoplasmic tyrosine-protein kinase BMX (Homo sapiens) (UniProt P51813); assay: BMX DiscoveRx kinase panel; settings: Compound concentration 1.0 uM
[36] = target: Mitogen-activated protein kinase kinase kinase 15 (Homo sapiens) (UniProt Q6ZN16); assay: MAP3K15 DiscoveRx kinase panel; settings: Compound concentration 1.0 uM
[37] = target: Mitogen-activated protein kinase kinase kinase 1 (Homo sapiens) (UniProt Q13233); assay: MAP3K1 DiscoveRx kinase panel; settings: Compound concentration 1.0 uM
[38] = target: BMP-2-inducible protein kinase (Homo sapiens) (UniProt Q9NSY1); assay: BIKE DiscoveRx kinase panel; settings: Compound concentration 1.0 uM
[39] = target: Serine/threonine-protein kinase NIM1 (Homo sapiens) (UniProt Q8IY84); assay: NIM1 DiscoveRx kinase panel; settings: Compound concentration 1.0 uM
[40] = target: GABA-A receptor; anion channel (Rattus norvegicus) (UniProt O09028+P15431+P18506+P18508+P19969+P20236+P23574+P23576+P28471+P28473+P30191+P62813+P63079+P63138+Q91ZM7+Q9ES14); settings: Compound concentration 10.0 uM
[41] = target: Serine/threonine-protein kinase PLK3 (Homo sapiens) (UniProt Q9H4B4); assay: PLK3 DiscoveRx kinase panel; settings: Compound concentration 1.0 uM
[42] = target: T2, Mitotic checkpoint serine/threonine-protein kinase BUB1; assay: BUB1 surface plasmon resonance (SPR) assay
[43] = target: Myosin light chain kinase (Homo sapiens) (UniProt Q32MK0); assay: MLCK DiscoveRx kinase panel; settings: Compound concentration 1.0 uM
[44] = target: Angiopoietin-1 receptor (Homo sapiens) (UniProt Q02763); assay: TIE2 DiscoveRx kinase panel; settings: Compound concentration 1.0 uM
[45] = target: cAMP-dependent protein kinase catalytic subunit beta (Homo sapiens) (UniProt P22694); assay: PKAC-beta DiscoveRx kinase panel; settings: Compound concentration 1.0 uM
[46] = target: Platelet-activating factor receptor (Homo sapiens) (UniProt P25105); assay: Inhibition of Platelet Activating Factor (PAF) at 10 µM in the Eurofins-Panlabs radioligand binding assay (Eurofins_assay_265010); settings: Compound concentration 10.0 uM
[47] = target: Serine/threonine-protein kinase Nek11 (Homo sapiens) (UniProt Q8NG66); assay: NEK11 DiscoveRx kinase panel; settings: Compound concentration 1.0 uM
[48] = target: Casein kinase I isoform gamma-2 (Homo sapiens) (UniProt P78368); assay: CSNK1G2 DiscoveRx kinase panel; settings: Compound concentration 1.0 uM

T1 sequence (Q01959 whole entry): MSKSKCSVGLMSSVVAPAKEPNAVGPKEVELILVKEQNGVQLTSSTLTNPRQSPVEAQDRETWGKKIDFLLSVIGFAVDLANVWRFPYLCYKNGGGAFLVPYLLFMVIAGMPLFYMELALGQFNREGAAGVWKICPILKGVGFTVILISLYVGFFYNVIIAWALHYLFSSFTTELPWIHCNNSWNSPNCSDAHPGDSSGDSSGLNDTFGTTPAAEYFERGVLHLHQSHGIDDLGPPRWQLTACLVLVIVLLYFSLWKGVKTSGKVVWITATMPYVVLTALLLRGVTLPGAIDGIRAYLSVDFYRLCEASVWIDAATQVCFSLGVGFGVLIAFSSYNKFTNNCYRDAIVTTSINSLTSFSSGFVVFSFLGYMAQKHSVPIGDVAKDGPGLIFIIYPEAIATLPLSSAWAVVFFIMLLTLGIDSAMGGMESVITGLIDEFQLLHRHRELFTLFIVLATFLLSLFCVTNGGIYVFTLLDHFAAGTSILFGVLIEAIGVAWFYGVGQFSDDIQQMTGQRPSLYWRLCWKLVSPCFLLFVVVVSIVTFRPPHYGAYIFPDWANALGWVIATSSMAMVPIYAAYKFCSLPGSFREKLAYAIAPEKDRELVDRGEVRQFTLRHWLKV
T2 sequence (O43683 whole entry): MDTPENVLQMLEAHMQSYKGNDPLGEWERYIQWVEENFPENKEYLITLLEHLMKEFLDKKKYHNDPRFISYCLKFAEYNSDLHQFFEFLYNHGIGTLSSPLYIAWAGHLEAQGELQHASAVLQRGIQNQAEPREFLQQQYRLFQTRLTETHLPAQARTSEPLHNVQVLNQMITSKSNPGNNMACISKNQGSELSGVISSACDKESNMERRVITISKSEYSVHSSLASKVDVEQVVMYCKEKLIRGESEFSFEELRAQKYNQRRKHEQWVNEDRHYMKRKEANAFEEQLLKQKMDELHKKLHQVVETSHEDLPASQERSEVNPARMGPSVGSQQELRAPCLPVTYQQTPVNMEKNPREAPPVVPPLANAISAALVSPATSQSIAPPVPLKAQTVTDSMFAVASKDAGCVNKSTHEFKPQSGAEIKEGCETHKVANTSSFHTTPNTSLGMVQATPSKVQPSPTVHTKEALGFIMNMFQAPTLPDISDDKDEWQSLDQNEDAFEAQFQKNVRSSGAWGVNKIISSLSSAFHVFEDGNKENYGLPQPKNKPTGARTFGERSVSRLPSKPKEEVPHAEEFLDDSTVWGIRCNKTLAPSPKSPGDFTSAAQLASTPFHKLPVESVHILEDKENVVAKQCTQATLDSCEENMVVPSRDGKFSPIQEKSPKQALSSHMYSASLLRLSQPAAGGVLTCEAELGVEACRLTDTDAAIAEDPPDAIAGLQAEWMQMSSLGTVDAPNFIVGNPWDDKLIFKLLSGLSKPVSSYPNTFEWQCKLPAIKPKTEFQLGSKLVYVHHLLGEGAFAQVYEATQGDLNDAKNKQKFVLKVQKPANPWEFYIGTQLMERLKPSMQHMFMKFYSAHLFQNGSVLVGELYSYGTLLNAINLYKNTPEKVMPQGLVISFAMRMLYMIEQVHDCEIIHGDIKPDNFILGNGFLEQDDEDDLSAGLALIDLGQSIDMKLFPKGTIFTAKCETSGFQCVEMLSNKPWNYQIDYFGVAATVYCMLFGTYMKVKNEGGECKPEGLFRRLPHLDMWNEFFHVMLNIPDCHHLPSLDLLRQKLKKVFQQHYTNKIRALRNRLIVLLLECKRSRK
Chain of Alpha-1D adrenergic receptor (P25100 whole entry, the tested form may be a part): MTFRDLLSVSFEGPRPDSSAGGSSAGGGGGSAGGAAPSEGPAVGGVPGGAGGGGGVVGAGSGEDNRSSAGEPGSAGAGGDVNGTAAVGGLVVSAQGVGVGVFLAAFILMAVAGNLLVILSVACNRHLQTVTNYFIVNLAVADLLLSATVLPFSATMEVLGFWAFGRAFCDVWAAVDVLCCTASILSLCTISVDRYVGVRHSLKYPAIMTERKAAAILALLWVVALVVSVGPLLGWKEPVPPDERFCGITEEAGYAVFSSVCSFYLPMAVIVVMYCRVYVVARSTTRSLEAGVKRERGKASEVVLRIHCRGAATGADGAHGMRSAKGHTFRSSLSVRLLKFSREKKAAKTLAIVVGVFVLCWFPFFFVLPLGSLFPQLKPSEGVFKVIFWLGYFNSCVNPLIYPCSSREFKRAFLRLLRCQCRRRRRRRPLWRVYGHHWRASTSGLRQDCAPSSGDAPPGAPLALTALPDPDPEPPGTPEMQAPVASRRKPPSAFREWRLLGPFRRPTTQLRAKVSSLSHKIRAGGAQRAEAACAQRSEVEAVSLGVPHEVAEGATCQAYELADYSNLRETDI
Chain of Mitogen-activated protein kinase kinase kinase 1 (Homo sapiens) (Q13233 whole entry): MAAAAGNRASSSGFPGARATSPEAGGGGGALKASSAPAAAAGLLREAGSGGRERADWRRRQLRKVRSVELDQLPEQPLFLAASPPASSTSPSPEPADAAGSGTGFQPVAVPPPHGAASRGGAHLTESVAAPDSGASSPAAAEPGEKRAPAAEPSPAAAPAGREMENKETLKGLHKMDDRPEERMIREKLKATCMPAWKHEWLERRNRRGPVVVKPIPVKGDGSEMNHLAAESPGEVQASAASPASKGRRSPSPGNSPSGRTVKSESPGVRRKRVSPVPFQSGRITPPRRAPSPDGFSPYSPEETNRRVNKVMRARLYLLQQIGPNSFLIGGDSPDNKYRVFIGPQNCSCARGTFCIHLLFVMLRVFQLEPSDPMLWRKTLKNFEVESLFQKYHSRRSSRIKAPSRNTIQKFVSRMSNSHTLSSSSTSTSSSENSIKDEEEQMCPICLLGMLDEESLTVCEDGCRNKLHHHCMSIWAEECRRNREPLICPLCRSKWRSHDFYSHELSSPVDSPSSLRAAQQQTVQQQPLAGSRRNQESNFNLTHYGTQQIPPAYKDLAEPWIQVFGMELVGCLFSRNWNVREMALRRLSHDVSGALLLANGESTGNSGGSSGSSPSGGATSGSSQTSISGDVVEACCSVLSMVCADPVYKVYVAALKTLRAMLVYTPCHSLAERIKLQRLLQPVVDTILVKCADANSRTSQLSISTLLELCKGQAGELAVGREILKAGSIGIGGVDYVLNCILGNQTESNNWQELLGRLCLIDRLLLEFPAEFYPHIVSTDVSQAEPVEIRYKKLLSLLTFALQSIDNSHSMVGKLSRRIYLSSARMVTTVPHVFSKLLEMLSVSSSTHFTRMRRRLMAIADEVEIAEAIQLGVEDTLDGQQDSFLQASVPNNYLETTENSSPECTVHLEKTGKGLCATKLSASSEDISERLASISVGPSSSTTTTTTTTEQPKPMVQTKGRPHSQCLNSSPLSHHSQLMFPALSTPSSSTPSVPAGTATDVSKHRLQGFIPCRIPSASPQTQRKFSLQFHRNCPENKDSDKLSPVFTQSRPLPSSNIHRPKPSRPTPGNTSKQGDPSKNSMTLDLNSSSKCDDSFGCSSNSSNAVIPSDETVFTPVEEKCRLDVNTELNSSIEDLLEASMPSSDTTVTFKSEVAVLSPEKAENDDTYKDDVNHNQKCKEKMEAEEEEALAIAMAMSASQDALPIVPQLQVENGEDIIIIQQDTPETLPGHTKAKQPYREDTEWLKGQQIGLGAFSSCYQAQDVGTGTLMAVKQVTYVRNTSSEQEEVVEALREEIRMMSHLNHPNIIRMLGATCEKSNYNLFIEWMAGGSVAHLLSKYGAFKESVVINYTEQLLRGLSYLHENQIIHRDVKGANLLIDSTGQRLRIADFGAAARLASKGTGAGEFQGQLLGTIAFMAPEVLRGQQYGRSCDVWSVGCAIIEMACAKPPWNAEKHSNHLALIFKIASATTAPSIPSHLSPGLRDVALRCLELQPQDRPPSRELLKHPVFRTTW
Chain of Serine/threonine-protein kinase Nek1 (Homo sapiens) (Q96PY6 whole entry): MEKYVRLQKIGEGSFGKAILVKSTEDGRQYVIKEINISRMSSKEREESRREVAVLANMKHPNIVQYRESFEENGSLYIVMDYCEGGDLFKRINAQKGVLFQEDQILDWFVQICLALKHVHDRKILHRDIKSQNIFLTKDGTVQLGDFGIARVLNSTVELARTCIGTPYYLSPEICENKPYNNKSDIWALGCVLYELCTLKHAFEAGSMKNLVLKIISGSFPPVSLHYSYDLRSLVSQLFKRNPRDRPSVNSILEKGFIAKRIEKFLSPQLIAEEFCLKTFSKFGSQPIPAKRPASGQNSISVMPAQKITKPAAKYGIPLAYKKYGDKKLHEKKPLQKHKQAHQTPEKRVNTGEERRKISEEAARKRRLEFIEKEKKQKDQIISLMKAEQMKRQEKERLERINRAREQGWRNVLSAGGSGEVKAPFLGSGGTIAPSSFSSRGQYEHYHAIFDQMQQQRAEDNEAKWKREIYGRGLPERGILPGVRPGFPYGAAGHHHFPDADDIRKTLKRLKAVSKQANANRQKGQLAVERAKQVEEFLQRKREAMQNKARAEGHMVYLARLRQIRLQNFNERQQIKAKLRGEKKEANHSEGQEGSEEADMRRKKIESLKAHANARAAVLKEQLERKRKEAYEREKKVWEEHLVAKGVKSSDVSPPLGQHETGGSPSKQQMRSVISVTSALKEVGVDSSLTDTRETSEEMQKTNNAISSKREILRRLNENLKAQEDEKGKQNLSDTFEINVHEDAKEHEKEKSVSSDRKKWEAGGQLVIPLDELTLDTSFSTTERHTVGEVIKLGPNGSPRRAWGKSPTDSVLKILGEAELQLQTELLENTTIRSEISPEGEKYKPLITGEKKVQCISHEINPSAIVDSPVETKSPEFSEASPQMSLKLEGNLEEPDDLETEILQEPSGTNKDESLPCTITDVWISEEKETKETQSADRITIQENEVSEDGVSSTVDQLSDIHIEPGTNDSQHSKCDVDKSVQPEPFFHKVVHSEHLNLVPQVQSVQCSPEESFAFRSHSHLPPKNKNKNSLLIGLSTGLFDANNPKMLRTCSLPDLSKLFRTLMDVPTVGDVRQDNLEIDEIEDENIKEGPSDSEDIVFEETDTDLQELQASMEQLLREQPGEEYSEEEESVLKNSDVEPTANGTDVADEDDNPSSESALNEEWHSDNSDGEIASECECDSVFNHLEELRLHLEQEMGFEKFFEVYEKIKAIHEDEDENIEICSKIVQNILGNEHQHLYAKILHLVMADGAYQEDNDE

## COc1cnccc1Nc1nc(-c2nn(Cc3c(F)cc(OCCO)cc3F)c3ccccc23)ncc1OC
[1]
  residual activity: 100%
[2]
  inhibition: 13%
[3]
  residual activity: 60%
[4]
  residual activity: 96%
[5]
  residual activity: 99%
[6]
  residual activity: 100%
[7]
  residual activity: 96%
[8]
  inhibition: 60.2%
[9]
  residual activity: 100%
[10]
  inhibition: 2%
[11]
  residual activity: 83%
[12]
  residual activity: 100%
[13]
  residual activity: 91%
[14]
  residual activity: 100%
[15]
  inhibition: 4%
[16]
  residual activity: 90%
[17]
  residual activity: 63%
[18]
  inhibition: 1%
[19]
  residual activity: 82%
[20]
  residual activity: 78%
[21]
  Ki: > 10 µM
  pKi: < 5
[22]
  residual activity: 100%
[23]
  pKi: < 5
[23]; read-out: Ki
  Ki: > 10 µM
[24]
  residual activity: 71%
[25]
  residual activity: 97%
[26]
  residual activity: 77%
[27]
  residual activity: 80%
[28]
  residual activity: 100%
[29]
  residual activity: 56%
[30]
  residual activity: 100%
[31]
  IC50: 1.9 µM (not active)
[32]
  residual activity: 96%
[33]
  residual activity: 100%
[34]
  residual activity: 86%
[35]
  residual activity: 100%
[36]
  residual activity: 87%
[37]
  residual activity: 92%
[38]
  residual activity: 74%
[39]
  residual activity: 88%
[40]
  inhibition: 7%
[41]
  residual activity: 100%
[42]
  Kd: 0.0021 µM (active)
[43]
  residual activity: 72%
[44]
  residual activity: 41%
[45]
  residual activity: 100%
[46]
  inhibition: 28%
[47]
  residual activity: 96%
[48]
  residual activity: 78%

From ChEMBL document CHEMBL5058649, “Data for DCP probe BAY 1816032” (2022)
